The source made the active and inactive calls. Unless noted, the calls are words filed in the database; no cut-off is given here.
Assays:
[1] = Anti-IgM induced B cell proliferation of mouse primary lymphocytes. [Related pubchem assays: 1266, 1299, 1269, 1373, 1292, 1290, 1302, 1371, 1283, 1270, 1295, 1271, 1375, 1294, 1287, 1374, 1281, 1293, 1291, 1289, 1280, 465, 1368, 1364, 1282, 1372, 1369, 1370, 1367, 1366 ]; format: functional, cell-based
[2] = target: Protein kinase C theta type (Homo sapiens, UniProt Q04759); test: In Vitro Kinase Assay Using Purified Enzyme PKC-theta. [Related pubchem assays: 1299, 1270, 1295, 1375, 1287, 1281, 1293, 1291, 1289, 1280, 465, 1364, 1282, 1372, 1365, 1370, 1367, 1366, 1266, 1269, 1373, 1292, 1290, 1302, 1371, 1271, 1294, 1374, 1368, 1369 ]
MCF7 [3] = test: Cytotoxicity assay in MCF7 cells. [Related pubchem assays (depositor defined):AID1266, AID1269, AID1270, AID1271, AID1280, AID1281, AID1282, AID1283, AID1287, AID1289, AID1290, AID1291, AID1292, AID1293, AID1294, AID1295, AID1299, AID1302, AID1364, AID1365, AID1366, AID1367, AID1368, AID1369, AID1370, AID1371, AID1372, AID1374, AID1375, AID1384 …; format: functional, cell-based; conditions: Homo sapiens
[4] = target: Inhibitor of nuclear factor kappa-B kinase subunit beta (Homo sapiens, UniProt O14920); test: In Vitro Kinase Assay Using Purified Enzyme IKK-beta. [Related pubchem assays: 1266, 1299, 1269, 1373, 1292, 1290, 1302, 1371, 1283, 1270, 1295, 1271, 1375, 1294, 1287, 1374, 1281, 1293, 1291, 1289, 1280, 465, 1368, 1364, 1372, 1365, 1369, 1370, 1367, 1366 ]
HEK293 [5] = test: PMA/Ionomycin induced NF-kB luciferase assay in 293- NF-kB-Luc stable cells. [Related pubchem assays: 1299, 1270, 1295, 1375, 1287, 1281, 1293, 1291, 1289, 1280, 465, 1364, 1282, 1372, 1365, 1370, 1367, 1366, 1269, 1373, 1292, 1290, 1302, 1371, 1283, 1271, 1294, 1374, 1368, 1369 ]; format: functional, cell-based; conditions: Homo sapiens
[6] = target: Luciferin 4-monooxygenase (Photinus pyralis, UniProt P08659); test: In vitro luciferase assay using purified luciferase. [Related pubchem assays: 1299, 1270, 1295, 1375, 1287, 1281, 1293, 1291, 1289, 1280, 465, 1364, 1282, 1372, 1365, 1370, 1367, 1366, 1266, 1373, 1292, 1290, 1302, 1371, 1283, 1271, 1294, 1374, 1368, 1369 ]
MCF7 [7] = test: GM-Tri-DAP induced IL-8 production in MCF-7/NOD1 cells. [Related pubchem assays (depositor defined):AID1266, AID1269, AID1270, AID1271, AID1280, AID1281, AID1282, AID1283, AID1287, AID1289, AID1290, AID1291, AID1292, AID1293, AID1294, AID1295, AID1299, AID1302, AID1364, AID1365, AID1366, AID1367, AID1368, AID1369, AID1371, AID1372, AID1373 …; format: functional, cell-based; conditions: Homo sapiens
[8] = target: Protein kinase C beta type (Homo sapiens, UniProt P05771); test: In Vitro Kinase Assay Using Purified Enzyme PKC-beta. [Related pubchem assays: 1299, 1270, 1295, 1375, 1287, 1281, 1293, 1291, 1289, 465, 1364, 1282, 1372, 1365, 1370, 1367, 1366, 1266, 1269, 1373, 1292, 1290, 1302, 1371, 1283, 1271, 1294, 1374, 1368, 1369 ]
Jurkat [9] = test: IL-2 Production Assay in Jurkat T-cells Stimulated with anti-CD3/anti-CD28 antibodies. [Related pubchem assays: 1299, 1270, 1295, 1375, 1287, 1281, 1293, 1291, 1289, 1280, 465, 1364, 1282, 1372, 1365, 1370, 1367, 1366, 1266, 1269, 1373, 1292, 1290, 1302, 1371, 1283, 1294, 1374, 1368, 1369 ]; format: functional, cell-based; conditions: Homo sapiens
MCF7 [10] = test: PMA/Ionomycin induced NF-kB luciferase in MCF7 cells. [Related pubchem assays (depositor defined):AID1266, AID1269, AID1270, AID1271, AID1280, AID1281, AID1282, AID1283, AID1287, AID1289, AID1290, AID1291, AID1292, AID1293, AID1294, AID1295, AID1299, AID1302, AID1364, AID1365, AID1367, AID1368, AID1369, AID1370, AID1371, AID1372, AID1373, AID1374 …; format: functional, cell-based; conditions: Homo sapiens
HEK293 [11] = test: PMA/Ionomycin-induced IL-8 production in HEK293- NF-kB-Luc stable cells. [Related pubchem assays: 1299, 1295, 1375, 1287, 1281, 1293, 1291, 1289, 1280, 465, 1364, 1282, 1372, 1365, 1367, 1366, 1266, 1269, 1373, 1292, 1290, 1302, 1371, 1283, 1271, 1294, 1374, 1368, 1369 ]; format: functional, cell-based; conditions: Homo sapiens
Jurkat [12] = test: Cytotoxicity assay in Jurkat T cells. [Related pubchem assays (depositor defined):AID1266, AID1269, AID1270, AID1271, AID1280, AID1281, AID1282, AID1283, AID1287, AID1289, AID1290, AID1291, AID1292, AID1293, AID1294, AID1295, AID1299, AID1302, AID1364, AID1365, AID1366, AID1368, AID1369, AID1370, AID1371, AID1372, AID1373, AID1374, AID1375 …; format: functional, cell-based; conditions: Homo sapiens
PPC-1 = test: PMA/Ionomycin induced NF-kB luciferase in PPC-1 cells. [Related pubchem assays (depositor defined):AID1266, AID1269, AID1270, AID1271, AID1280, AID1281, AID1282, AID1283, AID1287, AID1289, AID1290, AID1291, AID1292, AID1293, AID1294, AID1295, AID1299, AID1302, AID1364, AID1365, AID1366, AID1367, AID1368, AID1369, AID1370, AID1371, AID1372, AID1373 …; format: functional, cell-based; conditions: Homo sapiens
HeLa [13] = test: Cytotoxicity Assay in HeLa Cells. [Related pubchem assays: 1299, 1270, 1295, 1375, 1287, 1281, 1293, 1291, 1289, 1280, 465, 1364, 1282, 1372, 1365, 1370, 1367, 1366, 1266, 1269, 1373, 1292, 1290, 1371, 1283, 1271, 1294, 1374, 1368, 1369 ]; format: functional, cell-based; conditions: Homo sapiens
[14] = Anti-cd3/cd28 induced T cell proliferation of mouse primary lymphocytes. [Related pubchem assays: 1299, 1270, 1295, 1375, 1287, 1281, 1293, 1291, 1289, 1280, 465, 1282, 1372, 1365, 1370, 1367, 1366, 1266, 1269, 1373, 1292, 1290, 1302, 1371, 1283, 1271, 1294, 1374, 1368, 1369 ]; format: functional, cell-based
HEK293 [15] = test: Cytotoxicity assay in HEK293 cells. [Related pubchem assays (depositor defined):AID1266, AID1269, AID1270, AID1271, AID1280, AID1281, AID1282, AID1283, AID1287, AID1289, AID1290, AID1291, AID1292, AID1293, AID1294, AID1295, AID1299, AID1302, AID1364, AID1365, AID1366, AID1367, AID1369, AID1370, AID1371, AID1372, AID1373, AID1374, AID1375, AID1384 …; format: functional, cell-based; conditions: Homo sapiens
HeLa [16] = test: PMA/Ionomycin induced NF-kB luciferase in HeLa cells. [Related pubchem assays (depositor defined):AID1266, AID1269, AID1270, AID1271, AID1280, AID1281, AID1282, AID1283, AID1287, AID1289, AID1290, AID1291, AID1292, AID1293, AID1294, AID1295, AID1299, AID1302, AID1364, AID1365, AID1366, AID1367, AID1368, AID1369, AID1370, AID1371, AID1372, AID1373 …; format: functional, cell-based; conditions: Homo sapiens
THP-1 = test: LPS induced NF-kB in THP.1 cells. [Related pubchem assays (depositor defined):AID1266, AID1269, AID1270, AID1271, AID1280, AID1281, AID1282, AID1283, AID1287, AID1289, AID1290, AID1291, AID1292, AID1293, AID1294, AID1295, AID1299, AID1302, AID1364, AID1365, AID1366, AID1367, AID1368, AID1370, AID1371, AID1372, AID1373, AID1374, AID1375, AID1384 …; format: functional, cell-based; conditions: Homo sapiens
HEK293 [17] = test: TNF Induced NF-kB Luciferase in 293-NF-kB-Luc Stable Cells. [Related pubchem assays: 1266, 1299, 1269, 1373, 1292, 1290, 1302, 1371, 1283, 1270, 1295, 1271, 1375, 1294, 1374, 1281, 1293, 1291, 1289, 1280, 465, 1368, 1364, 1282, 1372, 1365, 1369, 1370, 1367, 1366 ]; format: functional, cell-based; conditions: Homo sapiens
HEK293 [18] = test: cells; conditions: Homo sapiens
HEK293 [19] = test: cells; conditions: Homo sapiens; remark: listed apart in the source
HEK293 [20] = test: cells; conditions: Homo sapiens; remark: listed apart in the source
HEK293 [21] = test: cells; conditions: Homo sapiens; remark: listed apart in the source
HEK293 [22] = test: cells; conditions: Homo sapiens; remark: listed apart in the source
HEK293 [23] = test: cells; conditions: Homo sapiens; remark: listed apart in the source
HEK293 [24] = test: cells; conditions: Homo sapiens; remark: listed apart in the source
HEK293 [25] = test: cells; conditions: Homo sapiens; remark: listed apart in the source
HEK293 [26] = test: cells; conditions: Homo sapiens; remark: listed apart in the source
HEK293 [27] = test: cells; conditions: Homo sapiens; remark: listed apart in the source

Chain of Inhibitor of nuclear factor kappa-B kinase subunit beta (O14920 whole entry): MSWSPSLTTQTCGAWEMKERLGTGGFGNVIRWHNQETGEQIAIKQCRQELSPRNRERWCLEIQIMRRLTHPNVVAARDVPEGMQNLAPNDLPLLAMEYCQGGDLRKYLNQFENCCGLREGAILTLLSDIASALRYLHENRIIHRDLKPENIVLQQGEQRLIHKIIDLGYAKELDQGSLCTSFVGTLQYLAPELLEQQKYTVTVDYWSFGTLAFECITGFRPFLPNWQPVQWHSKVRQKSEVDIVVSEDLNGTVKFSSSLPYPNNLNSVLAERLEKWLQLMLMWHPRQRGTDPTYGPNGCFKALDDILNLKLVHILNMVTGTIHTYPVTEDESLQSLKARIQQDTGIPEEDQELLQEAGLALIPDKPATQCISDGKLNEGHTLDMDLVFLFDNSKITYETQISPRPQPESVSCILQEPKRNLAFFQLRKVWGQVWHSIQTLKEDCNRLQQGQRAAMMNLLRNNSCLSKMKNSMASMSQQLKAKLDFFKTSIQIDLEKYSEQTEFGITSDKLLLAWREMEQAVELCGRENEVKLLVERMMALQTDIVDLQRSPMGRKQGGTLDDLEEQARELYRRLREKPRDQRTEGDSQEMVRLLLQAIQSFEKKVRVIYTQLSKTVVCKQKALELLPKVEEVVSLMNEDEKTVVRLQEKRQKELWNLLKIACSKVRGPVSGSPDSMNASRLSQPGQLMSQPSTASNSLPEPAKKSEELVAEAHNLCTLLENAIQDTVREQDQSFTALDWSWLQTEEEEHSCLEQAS
Chain of Luciferin 4-monooxygenase (P08659 whole entry): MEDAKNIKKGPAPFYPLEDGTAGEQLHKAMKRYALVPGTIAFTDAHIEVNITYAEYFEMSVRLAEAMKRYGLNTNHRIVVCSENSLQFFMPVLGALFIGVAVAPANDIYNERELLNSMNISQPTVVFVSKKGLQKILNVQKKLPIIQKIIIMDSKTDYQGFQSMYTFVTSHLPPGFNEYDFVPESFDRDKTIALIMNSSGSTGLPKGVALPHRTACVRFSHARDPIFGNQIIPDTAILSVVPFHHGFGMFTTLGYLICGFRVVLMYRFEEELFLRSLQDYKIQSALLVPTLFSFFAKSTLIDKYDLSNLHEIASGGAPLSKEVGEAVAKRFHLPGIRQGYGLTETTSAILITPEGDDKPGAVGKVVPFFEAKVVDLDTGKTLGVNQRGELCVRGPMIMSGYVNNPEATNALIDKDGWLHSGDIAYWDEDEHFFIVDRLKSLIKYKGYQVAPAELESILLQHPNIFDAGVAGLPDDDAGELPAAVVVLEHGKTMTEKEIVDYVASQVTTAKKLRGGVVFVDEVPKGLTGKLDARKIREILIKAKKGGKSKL
Chain of Protein kinase C theta type (Q04759 whole entry): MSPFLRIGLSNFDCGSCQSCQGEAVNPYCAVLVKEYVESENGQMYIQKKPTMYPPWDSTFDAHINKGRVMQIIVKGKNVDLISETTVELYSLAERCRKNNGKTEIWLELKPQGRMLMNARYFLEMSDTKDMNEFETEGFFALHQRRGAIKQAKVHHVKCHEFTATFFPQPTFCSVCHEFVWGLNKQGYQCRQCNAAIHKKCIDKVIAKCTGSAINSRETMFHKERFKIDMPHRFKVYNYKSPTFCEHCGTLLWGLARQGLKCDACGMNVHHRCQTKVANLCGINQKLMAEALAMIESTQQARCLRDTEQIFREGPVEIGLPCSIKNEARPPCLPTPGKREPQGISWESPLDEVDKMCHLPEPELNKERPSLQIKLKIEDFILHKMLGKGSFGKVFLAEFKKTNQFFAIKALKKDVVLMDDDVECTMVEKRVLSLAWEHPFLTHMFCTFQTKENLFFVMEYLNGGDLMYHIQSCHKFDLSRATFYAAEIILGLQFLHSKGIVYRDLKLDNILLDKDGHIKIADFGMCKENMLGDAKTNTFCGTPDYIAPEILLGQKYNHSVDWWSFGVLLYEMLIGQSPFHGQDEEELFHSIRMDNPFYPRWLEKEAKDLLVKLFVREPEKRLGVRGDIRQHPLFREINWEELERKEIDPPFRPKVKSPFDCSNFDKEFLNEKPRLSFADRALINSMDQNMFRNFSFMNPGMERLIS
Chain of Protein kinase C beta type (P05771 whole entry): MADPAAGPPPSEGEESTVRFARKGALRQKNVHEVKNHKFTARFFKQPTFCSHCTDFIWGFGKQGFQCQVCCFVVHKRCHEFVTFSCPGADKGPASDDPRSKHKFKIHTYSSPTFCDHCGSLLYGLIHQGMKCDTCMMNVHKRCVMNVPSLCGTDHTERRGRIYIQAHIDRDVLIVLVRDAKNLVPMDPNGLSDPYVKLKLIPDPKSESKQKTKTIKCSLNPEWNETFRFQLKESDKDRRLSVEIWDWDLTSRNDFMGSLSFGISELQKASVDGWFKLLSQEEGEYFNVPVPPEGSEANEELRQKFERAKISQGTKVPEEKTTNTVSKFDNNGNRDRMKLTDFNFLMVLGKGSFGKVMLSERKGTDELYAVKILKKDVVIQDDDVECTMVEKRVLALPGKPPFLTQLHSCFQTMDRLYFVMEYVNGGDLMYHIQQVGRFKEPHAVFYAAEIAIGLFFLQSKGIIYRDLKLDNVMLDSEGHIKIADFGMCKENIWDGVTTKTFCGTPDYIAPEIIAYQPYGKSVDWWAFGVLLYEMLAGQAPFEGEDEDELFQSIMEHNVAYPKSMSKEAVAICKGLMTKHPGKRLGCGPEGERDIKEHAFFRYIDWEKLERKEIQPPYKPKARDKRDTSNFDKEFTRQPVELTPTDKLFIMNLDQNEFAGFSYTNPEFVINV

For `Cc1cc2nc(NCCCO)n(CC(=O)c3cc(C(C)(C)C)c(O)c(C(C)(C)C)c3)c2cc1C`, the EC50 [1] was 2.81 µM (active), the EC50 [2] was > 4 µM (not active) and the EC50 (MCF7 [3]) was > 8 µM (inactive). The EC50 [4] was > 4 µM (not active), the EC50 (HEK293 [5]) was 0.129 µM (active) and the EC50 [6] was > 8 µM (not active). For the same compound, the EC50 (MCF7 [7]) was > 8 µM (inactive), the EC50 [8] was > 4 µM (not active) and the EC50 (Jurkat [9]) was 2.57 µM (active). The EC50 (MCF7 [10]) was > 4 µM (inactive), the EC50 (HEK293 [11]) was 0.0604 µM (active) and the EC50 (Jurkat [12]) was > 8 µM (inactive). The EC50 (PPC-1) was > 4 µM (inactive), the EC50 (HeLa [13]) was > 4 µM (not active) and the EC50 [14] was > 4 µM (not active). For the same compound, the EC50 (HEK293 [15]) was > 8 µM (inactive), the EC50 (HeLa [16]) was > 4 µM (inactive) and the EC50 (THP-1) was 5.74 µM (inactive). The EC50 (HEK293 [17]) was > 8 µM (not active), the EC50 (HEK293 [18]) was > 4 µM (not active) and the EC50 (HEK293 [19]) was > 4 µM (not active). The EC50 (HEK293 [20]) was > 4 µM (not active), the EC50 (HEK293 [21]) was > 4 µM (inactive) and the EC50 (HEK293 [22]) was > 4 µM (not active). The EC50 (HEK293 [23]) was > 4 µM (not active), the EC50 (HEK293 [24]) was 0.672 µM (active) and the EC50 (HEK293 [25]) was > 4 µM (inactive). The EC50 (HEK293 [26]) was 0.23 µM (active) and the EC50 (HEK293 [27]) was > 4 µM (not active).

From ChEMBL document CHEMBL1201862, “PubChem BioAssay data set” (2004)
